From patent US11505592B2, “Diagnosis and therapy of multiple sclerosis” (PRINDEX S.R.L., priority 2015, dated 2022)

System: MS IgG
Assay: Indirect ELISA of MS IgG binding to receptor peptides
Design: species or system human
Conditions: 200 μg immunoglobulins
Experimental: FIG. 6: Dose-response curves of the interaction between MS sera and DDSK peptide. (A) Sera of Multiple Sclerosis patients and Control (control group is defined in material and method below) (200 μg) were incubated with different concentrations (50-100-250 μM) of peptide DDSK. For the detection, inventors used a secondary antibody anti human IgG conjugated with HRP and (3,3′,5,5′-Tetramethylbenzidine) TMB solution that was added for each well and incubated for 15-30 min. Equal volume of stopping solution (2 M H2SO4) was added to the plate and absorbance (optical density) of plate was read at 450 nm. The statistical analysis derived from 9 experiments. Values are mean±SEM. *P<0.05 MS vs CTRL (B) Linear representation of dose-response curve Values are mean±SEM. *P<0.05 MS vs CTRL.
FIGS. 7A, 7B, 7C and 7D: MS sera recognize specially receptor's peptides. […] Equal volume of stopping solution (2 M H2SO4) was added to the plate and absorbance (optical density) of plate was read at 450 nm. […]
A. Sera of Multiple Sclerosis patients and Control (200 μg) were incubated in absence (uncoated) or presence of 100 μM of DDSK peptide. […] Equal volume of stopping solution (2 M H2SO4) was added to the plate and absorbance (optical density) of plate was read at 450 nm. […]
Diluted peptide (20 μg/ml) was coated to the wells of a PVC microtiter plate and incubated at 4° C. overnight. […] For the detection, we used a secondary antibody anti human (recognized constant region of the patient antibody conjugated with HRP and (3,3′,5,5′-Tetramethylbenzidine) TMB solution that was added for each well and incubated for 15-30 min. Equal volume of stopping solution (2 M H2SO4) was added to the plate and absorbance (optical density) of plate was read at 450 nm.
To evaluate the peptide concentration to use for ELISA assay we performed a dose-response curve. […] (named DDSK in the figures) and the absorbance (optical density) of plate was read at 450 nm. […]

- binding of MS IgG to peptide respect to scrambled (100 μM peptide): bind specifically
- peptide concentration at which MS IgG bind the peptide (dose-response 50-100-250 μM peptide, absorbance 450 nm): higher than 50 μM
Sequence: DDSKVFKEGS
